Reference: patent publication US9399042B2, “Method for the removal of subcutaneous fat accumulations by subcutaneous lipolysis by administering a combination of glycyrrhizic acid and soybean phospholipids” (Lichtblick GmbH, priority 2010, dated 2016)
“Also recorded” adds a separate entry of the source. Where two headings read alike, the source gives them in different places.

What was measured:
[1] = test system: 3T3-L1 cells; experiment: Lipolysis assay (glycerol release) with differentiated 3T3-L1 cells; assay type: cell-based, murine; details: 10 μM, 4 hours, 3% BSA/PBS; positive control
Description: 3T3-L1 cells were stimulated by a hormone cocktail to adipogenesis and differentiated for another 8 days to mature adipocytes. […] The lipolytic activity was measured using a lipolysis assay, as described below: The cleavage of triglycerides into glycerol and the three fatty acids is known as lipolysis. This process is catalyzed primarily by the hormone-sensitive lipase and the adipose triglyceride lipase. Using a lipolysis assay the lipolytic activity of cells can be detected. This assay is based on the measurement of glycerol emerged during lipolysis, which is secreted by the cells into the medium. The glycerol is metabolized by enzymatic reactions to glycerol-1-phosphate and then to dihydroxy acetone phosphate. Thereby hydrogen peroxide is produced, which is quantified photometrically with a peroxidase stain reaction. In order to be able to make statements about the lipolytic action of substances, they are compared with the basal lipolysis activity of the cells and with the lipolysis stimulated by the beta-adrenergic receptor. Such a stimulation can be caused by isoproterenol. FIG. 7: Graphical picture of the analysis of the lipolysis assay (μg glycerol/μg DNA) with treated differentiated 3T3-L1 cells. 3T3-L1 were stimulated by a hormonal induction cocktail to adipogenesis and then differentiated for 8 days. […]

[2] = test system: Adipose-Derived Stem Cells (ADSC); experiment: Propidium iodide (PI) staining of treated differentiated ADSCs (CLSM); assay type: cell-based, human
Description: Further analysis of the cell-damaging effect of sodium deoxycholate on ADSCs was performed by PI staining of the treated cells and subsequent analysis with CLSM. The differentiated, mature adipocytes were treated with: • 0.05 mg/ml, 0.1 mg/ml and 0.5 mg/ml sodium deoxycholate for 4 hours.
Then the cells were incubated in a medium containing 5 µg/ml propidium iodide for 5 minutes. This was followed by microscopic analysis with CLSM at a 63-fold magnification (FIG. 3c).
After the incubation period (4 hours) the adipocytes were stained with […] PI and analyzed with CLSM. In the upper PI-row (a-e) fluorescence images of PI-stained cells are shown. In the lower PK-row (a-e) the corresponding phase contrast images are presented with the overlapping fluorescence images over one another.
A further analysis of a cell-damaging effect of phosphatidyl choline on ADSCs was performed by PI staining of the treated cells and subsequent analysis with CLSM. The differentiated, mature adipocytes were treated with: • 5 mg/ml, 10 mg/ml and 15 mg/ml phosphatidyl choline for 4 hours.
Then the cells were incubated in a medium containing 5 μg/ml propidium iodide for 5 minutes. This was followed by microscopic analysis with CLSM at a 63-fold magnification (FIG. 4c).
After the incubation period (4 hours) the adipocytes were stained with 5 μg/ml PI and analyzed with CLSM. In the upper PI-row (a-e) fluorescence images of PI-stained cells are shown. In the lower PK-row (a-e) the corresponding phase contrast images are presented with the overlapping fluorescence images over one another (Size bar=20 μm).

[3] = test system: 3T3-L1 cells; experiment: Membrane damaging / cytotoxic effect on differentiated 3T3-L1 cells (light microscopy, CLSM phase contrast); assay type: cell-based, murine; details: for In vitro Cell damaging causing concentration: single agent
Description: In order to test in vitro the effects of phosphatidyl choline on the membrane integrity and stability, differentiated 3T3-L1 cells were incubated with different concentrations of phosphatidyl choline for 4 and 24 hours and then analyzed by light microscopy.
As a model system, the murine preadipocyte cell line 3T3-L1 was used for the studies. 3T3-L1 cells were stimulated to adipogenesis by a conventional hormone cocktail (corticosterone, isobutylmethylxanthine, indomethacin, insulin) and differentiated for another 8 days to mature adipocytes.
The mature adipocytes of the 3T3-L1 cells were treated with various concentrations of phosphatidyl choline.
First, a phosphatidyl choline stock solution was prepared: • 500 mg/ml phosphatidyl choline dissolved in 70% ethanol
The used concentrations of phosphatidyl choline were: • 1 mg/ml, 5 mg/ml, 10 mg/ml, 15 mg/ml, 20 mg/ml
FIG. 1a: Phase contrast images of treated differentiated 3T3-L1 cells in 2D cell culture. The treatment was as follows: • (a) control=untreated cells in differentiation medium • (b) 1 mg/ml of phosphatidyl choline after 24 hours • (b) 5 mg/ml of phosphatidyl choline after 24 hours • (d) 10 mg/ml of phosphatidyl choline after 24 hours • (e) 15 mg/ml of phosphatidyl choline after 24 hours • (f) 20 mg/ml of phosphatidyl choline after 24 hours • (Size bar=100 μm).
FIG. 1b: Phase contrast images using a CLSM at a 63-fold magnification of treated differentiated 3T3-L1 cells in 2D cell culture. The treatment was as follows: • (a) control=untreated cells in differentiation medium after 4 hours • (b) 1 mg/ml of phosphatidyl choline after 4 hours • (c) 5 mg/ml of phosphatidyl choline after 4 hours • (d) 10 mg/ml of phosphatidyl choline after 4 hours • (Size bar=20 μm).
As a model system the murine preadipocyte cell line 3T3-L1 was used for the studies. 3T3-L1 cells were stimulated by a hormone cocktail (corticosterone, isobutylmethylxanthine, indomethacin, insulin) to adipogenesis and differentiated for another 8 days to mature adipocytes.
The mature adipocytes of 3T3-L1 cells were incubated with various concentrations of phosphatidyl choline between 0.1 mg/ml and 50 mg/ml. The phosphatidyl choline was combined with 2-20 mg/ml glycyrrhizinate and 18-180 mg/ml maltose.
The incubation of mature 3T3-L1 cells was performed for a duration of 4 hours with the substances combination.
Then the treated cells were examined at a 63-fold magnification by light microscopy for a membrane destabilizing and cytotoxic effect.
FIG. 9: Phase contrast images of treated differentiated 3T3-L1 cells. 3T3-L1 were stimulated by a hormonal induction cocktail to adipogenesis and then differentiated for 8 days. The mature adipocytes were treated for 24 hours with phosphatidyl choline and sodium deoxycholate from Lipostabil® with the following concentrations: • (a) untreated cells in differentiation medium, • (b) 0.01 mg/ml phosphatidyl choline+0.005 mg/ml Na-deoxycholate, • (c) 0.1 mg/ml phosphatidyl choline+0.05 mg/ml Na-deoxycholate, • (d) 0.25 mg/ml phosphatidyl choline+0.125 mg/ml Na-deoxycholate, • (e) 0.5 mg/ml phosphatidyl choline+0.25 mg/ml Na-deoxycholate, • (f) 1 mg/ml phosphatidyl choline+0.5 mg/ml Na-deoxycholate.
The analysis was done using the light microscope. Cells with damaged membrane or cell fragments are marked examplary with black arrows, while free lipid droplets are indicated by white arrows.

[4] = test system: Adipose-Derived Stem Cells (ADSC); experiment: Membrane damaging effect on differentiated ADSCs (light microscopy, CLSM); assay type: cell-based, human; details: 4 hours
Source text: The human subcutaneous adipose tissue can serve as a potential source of adult stem cells. These so-called “Adipose-Derived Stem Cells” (ADSC) are multipotent and may be differentiated by appropriate stimuli into various cell types, e.g. osteoblasts, chondrocytes, adipocytes. The isolation of ADSCs from human subcutaneous adipose tissue which is removed during plastic reductive surgery, is shown schematically in FIG. 2.
First the fat was washed with buffer to remove hematopoietic cells, and then crushed. The resulting pieces of fatty tissue were digested with collagenase. By centrifugation of the digested tissue the stromal-vascular fraction was separated and the floated mature adipocytes were discarded. The stromal-vascular fraction in the pellet is composed of a heterogeneous cell population of blood cells, fibroblasts, pericytes, endothelial cells and preadipocytes.
This cell population was transferred into a culture bottle with medium, wherein a portion of the cells adhered. By adding a suitable cocktail consisting of insulin, dexamethasone, indomethacin and isobutylmethylxanthine or consisting of insulin, cortisol, troglitazone, triiodothyronine and isobutylmethylxanthine the cells were stimulated for adipogenesis and an improved adipogenic differentiation was achieved.
The ADSCs of Example 4 were stimulated by a hormone cocktail (insulin, cortisol, troglitazone, triiodothyronine and isobutylmethylxanthine) to adipogenesis and then differentiated for another 21 days into mature adipocytes.
This was followed by a treatment with sodium deoxycholate. For this the following concentrations were used: • 0.01 mg/ml, 0.05 mg/ml, 0.075 mg/ml, 0.1 mg/ml and 0.5 mg/ml.
The incubation period was 4 hours.
This concentration range has been already proven to be effective in 3T3-L1. After the incubation period of 4 hours, the differentiated treated cells were subsequently viewed by light microscopy (FIG. 3a).
Additionally, ADSCs treated with sodium deoxycholate were examined with CLSM. The differentiated, mature adipocytes were treated with: • 0.01 mg/ml, 0.05 mg/ml and 0.1 mg/ml sodium deoxycholate for 4 hours.
This was followed by microscopic analysis with CLSM at a 63-fold magnification (FIG. 3b). […]

**Q.** For CC(C)NCC(O)c1ccc(O)c(O)c1 (centres unmarked) [isoproterenol], which “lipolytic activity compared to the basal level” value [1] is on record?
**A.** eight times the basal level

**Q.** Which “PI staining (membrane integrity)” value [2] does the source give for Triton here?
**A.** red cells stained by PI

**Q.** sodium deoxycholate [Na-deoxycholate] was tested. Which membrane damaging effect ([3]; 0.05 mg/ml) did it give?
**A.** membrane-damaging effects occurred

**Q.** What about the membrane damaging effect ([3]; 0.5 mg/ml) of the same compound?
**A.** highly toxic

**Q.** What about the “effect on the cell membrane” value ([3]; 20 mg/ml) of the same compound?
**A.** clear destruction of the cell membrane

**Q.** What about the “In vitro Cell damaging causing concentration” value [3] of the same compound?
**A.** ≥ 0.05 mg/mL

**Q.** What about the “In vitro Cell damaging causing concentration” value ([3]; listed as Na Deoxycholate) of the same compound?
**A.** from 0.05 mg/ml

**Q.** And the “membrane damaging / cytotoxic effect” value ([4]; 0.01 mg/ml)?
**A.** no effect on the cells; also recorded: no cytotoxic effect

**Q.** And the “membrane damaging / cytotoxic effect” value ([4]; 0.05 mg/ml)?
**A.** slight damages of the cell membrane

**Q.** And the “membrane damaging / cytotoxic effect” value ([4]; 0.05 mg/ml, listed as Na-DC)?
**A.** injury

**Q.** What about the “membrane damaging / cytotoxic effect” value ([4]; 0.1 mg/ml, CLSM) of the same compound?
**A.** strong membrane damage

**Q.** What about the “membrane damaging / cytotoxic effect” value ([4]; 0.5 mg/ml) of the same compound?
**A.** significantly toxic effect on the cells

**Q.** And the “membrane damaging / cytotoxic effect” value ([4]; 0.5 mg/ml, listed as Na-DC)?
**A.** dead

**Q.** What about the “PI staining (membrane integrity)” value ([2]; 0.05 mg/ml, 4 hours) of the same compound?
**A.** no red-stained cells

**Q.** What about the “PI staining (membrane integrity)” value ([2]; 0.1 mg/ml, 4 hours) of the same compound?
**A.** individual red-stained cells

**Q.** And the “PI staining (membrane integrity)” value ([2]; 0.5 mg/ml, 4 hours)?
**A.** many and clearly red-stained cells

**Q.** What about the “PI staining (membrane integrity)” value ([2]; 5, 10 and 15 mg/ml, 4 hours) of the same compound?
**A.** no red-stained cells
